Consider 1 molecule from paper PMC11722014, “FXR Activation Accelerates Early Phase of Osteoblast Differentiation Through COX-2-PGE2-EP4 Axis in BMP-2-Induced Mouse Mesenchymal Stem Cells” (Molecules, 2024).

Molecules are shown by their SMILES.

As a reminder, the EC50 is the concentration giving half of the maximal effect. Higher therefore signals a less potent agent.

In the assay the target is T1, Farnesoid X receptor (FXR) (Homo sapiens, UniProt Q96RI1).
T1 construct: gene NR1H4; FXR-LBD-Glutathione S-transferase fusion protein
T1 sequence (Q96RI1 262-486 limits assumed): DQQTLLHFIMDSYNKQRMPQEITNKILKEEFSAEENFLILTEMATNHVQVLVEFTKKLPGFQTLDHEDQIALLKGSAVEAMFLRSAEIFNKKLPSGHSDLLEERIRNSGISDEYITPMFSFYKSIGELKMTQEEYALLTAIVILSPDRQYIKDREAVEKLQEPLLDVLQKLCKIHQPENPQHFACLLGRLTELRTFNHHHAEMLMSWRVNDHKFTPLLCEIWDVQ
The experiment in a line: LanthaScreen TR-FRET FXR coactivator recruitment assay (partial agonist, […] of GW4064); also luciferase reporter assay. It counts as binding. In general terms: TR-FRET usually uses a lanthanide donor and a delayed reading to cut background.

As to `CC(C)(C)c1ccc(-n2c(C3CC3)nc3c(NC(=O)c4ccc(C(=O)O)cc4)cccc32)cc1` [FLG390], it took 630 ± 260 nM to reach a half-maximal effect (EC50).
